{"source": "ChEMBL document CHEMBL6134813", "about": "“Arctigenin derivative TZOA restores mitochondrial homeostasis to combat rhabdovirus infections” (Eur J Med Chem, 2025)", "key": {"[1]": {"test_system": "Infectious hematopoietic necrosis virus", "assay": "Antiviral activity against IHNV infected in EPC cells (unknown origin) assessed as reduction in viral G protein expression at 25 uM pretreated virus with compound for 4 hrs followed by compound-treated virus infection in EPC cells measured after 72 hrs by RT-qPCR analysis relative to control", "format": "functional", "parameters": "scale not given: the % may be the effect or the level left"}, "[2]": {"test_system": "Infectious hematopoietic necrosis virus", "assay": "Antiviral activity against IHNV infected in EPC cells (unknown origin) assessed as increase in virus-reduced MAVS expression in cells by Western blot analysis", "format": "functional, organism-based"}, "[3]": {"test_system": "Infectious hematopoietic necrosis virus", "assay": "Antiviral activity against IHNV infected in EPC cells (unknown origin) assessed as reduction in viral load for adsorption at 25 uM measured after 1 hr of incubation at 4 degreeC by RT-qPCR analysis relative to control", "format": "functional", "parameters": "scale not given: the % may be the effect or the level left"}, "[4]": {"test_system": "Infectious hematopoietic necrosis virus", "assay": "Antiviral activity against IHNV infected in EPC cells (unknown origin) assessed as inhibition of viral N gene expression measured after 72 hrs by RT-qPCR analysis", "format": "functional, organism-based", "details": "dose 0.1-100 µM"}, "[5]": {"test_system": "Infectious hematopoietic necrosis virus", "assay": "Antiviral activity against IHNV infected in EPC cells (unknown origin) assessed as area of mitochondria by TEM analysis (reference value: 0.05 to 0.2 um2)", "format": "functional"}, "[6]": {"test_system": "Infectious hematopoietic necrosis virus", "assay": "Antiviral activity against IHNV infected in EPC cells (unknown origin) assessed as reduction in virus-induced disruption of mitochondrial membrane potential at 25 uM incubated for 72 hrs by JC-1 dye based analysis", "format": "functional, organism-based"}, "[7]": {"assay": "Cytotoxicity against EPC cells (unknown origin) assessed as cell viability at 64 uM measured after 72 hrs by CCK8 assay", "format": "toxicity, cell-based"}, "[8]": {"test_system": "Infectious hematopoietic necrosis virus", "assay": "Antiviral activity against IHNV infected in EPC cells (unknown origin) assessed as reduction in viral load for internalization at 25 uM incubated for 1 hr at 4 degreeC followed by 2 hrs of incubation at 25 degreeC by RT-qPCR analysis relative to control", "format": "functional", "parameters": "scale not given: the % may be the effect or the level left", "details": "time 3 hrs"}, "[9]": {"test_system": "Infectious hematopoietic necrosis virus", "assay": "Antiviral activity against IHNV infected in EPC cells (unknown origin) assessed as increase in virus-reduced average number of mitochondrial networks within cells at 25 uM incubated for 72 hrs by Mito-Tracker dye based analysis", "format": "functional, organism-based"}, "[10]": {"test_system": "Infectious hematopoietic necrosis virus", "assay": "Antiviral activity against IHNV infected in EPC cells (unknown origin) assessed as inhibition of viral N gene expression at 25 uM measured after 72 hrs by RT-qPCR analysis relative to control", "format": "functional"}, "[11]": {"test_system": "Infectious hematopoietic necrosis virus", "assay": "Antiviral activity against IHNV infected in EPC cells (unknown origin) assessed as mitochondrial length by TEM analysis (reference value: 0.2 to 0.7 um)", "format": "functional"}, "[12]": {"test_system": "Infectious hematopoietic necrosis virus", "assay": "Antiviral activity against IHNV infected in EPC cells (unknown origin) assessed as inhibition of viral infection at 4 to 25 uM measured after 72 hrs by RT-qPCR analysis", "format": "functional, organism-based", "details": "dose 4-25 µM"}, "[13]": {"test_system": "Infectious hematopoietic necrosis virus", "assay": "Antiviral activity against IHNV infected in juvenile rainbow trout assessed as increase in ISG15 gene expression in spleen administered intraperitoneally measured after 2 days by RT-qPCR analysis", "format": "functional, organism-based", "details": "route ip, time 2.0 day"}, "[14]": {"test_system": "Infectious hematopoietic necrosis virus", "assay": "Antiviral activity against IHNV infected in juvenile rainbow trout assessed as decrease in erythrocytes in spleen administered intraperitoneally measured after 2 days by H and E staining based analysis", "format": "functional, organism-based", "details": "route ip, time 2.0 day"}, "[15]": {"test_system": "Infectious hematopoietic necrosis virus", "assay": "Antiviral activity against IHNV infected in juvenile rainbow trout assessed as increase in IRF3 gene expression in spleen administered intraperitoneally measured after 2 days by RT-qPCR analysis", "format": "functional, organism-based", "details": "route ip, time 2.0 day"}, "[16]": {"test_system": "Infectious hematopoietic necrosis virus", "assay": "Antiviral activity against IHNV infected in EPC cells (unknown origin) assessed as unchanged morphology in host cells at 25 uM pretreated virus with compound for 4 hrs followed by compound-treated virus infection in EPC cells measured after 72 hrs by microscopic analysis", "format": "functional, organism-based"}, "[17]": {"test_system": "Infectious hematopoietic necrosis virus", "assay": "(§1) Antiviral activity against IHNV infected in juvenile rainbow trout assessed as decrease in viral titer in donor fishes on horizontal transmission between virus-infected donor fishes and non-infected recipient fishes at 25 uM immersed together in compound for 48 hrs", "format": "functional, organism-based"}, "[18]": {"test_system": "Infectious hematopoietic necrosis virus", "assay": "Antiviral activity against IHNV infected in EPC cells (unknown origin) assessed as reversal of chromatin condensation at 25 uM measured after 72 hrs by fluorescence microscopy", "format": "functional, organism-based"}, "[19]": {"test_system": "Infectious hematopoietic necrosis virus", "assay": "Antiviral activity against IHNV infected in EPC cells (unknown origin) assessed as inhibition of viral replication at 25 uM preincubated for 24 hrs followed by viral infection measured after 72 hrs by RT-qPCR analysis", "format": "functional, organism-based", "details": "time 96.0 hrs"}, "[20]": {"test_system": "Infectious hematopoietic necrosis virus", "assay": "Antiviral activity against IHNV infected in EPC cells (unknown origin) assessed as decrease in formation of new viral particles at 25 uM measured after 72 hrs by RT-qPCR analysis relative to control", "format": "functional", "parameters": "scale not given: the % may be the effect or the level left"}, "[21]": {"test_system": "Infectious hematopoietic necrosis virus", "assay": "Antiviral activity against IHNV infected in EPC cells (unknown origin) assessed as elongated rod-shaped mitochondria with double layered membrane by TEM analysis", "format": "functional, organism-based"}, "[22]": {"test_system": "Infectious hematopoietic necrosis virus", "assay": "Antiviral activity against IHNV infected in juvenile rainbow trout assessed as increase in survival rate administered intraperitoneally measured for 14 days relative to control", "format": "functional", "details": "route ip; time 14 day"}, "[23]": {"test_system": "Infectious hematopoietic necrosis virus", "assay": "Antiviral activity against IHNV infected in EPC cells (unknown origin) assessed as minimal number of apoptotic bodies within observed area at 25 uM measured after 72 hrs by fluorescence microscopy", "format": "functional, organism-based"}, "[24]": {"test_system": "Infectious hematopoietic necrosis virus", "assay": "Antiviral activity against IHNV infected in juvenile rainbow trout assessed as decrease in viral G gene expression in spleen administered intraperitoneally measured after 1 to 4 days by RT-qPCR analysis", "format": "functional, organism-based", "details": "route ip, time 1-4 day"}, "[25]": {"test_system": "Infectious hematopoietic necrosis virus", "assay": "Antiviral activity against IHNV infected in EPC cells (unknown origin) assessed as formation of tubular structures by cristae by TEM analysis", "format": "functional, organism-based"}, "[26]": {"test_system": "Infectious hematopoietic necrosis virus", "assay": "Antiviral activity against IHNV infected in EPC cells (unknown origin) assessed as inhibition of viral G gene expression measured after 72 hrs by RT-qPCR analysis", "format": "functional, organism-based", "details": "dose 0.1-100 µM"}, "[27]": {"assay": "Cytotoxicity against EPC cells (unknown origin) assessed as cell viability up to 25 uM measured after 72 hrs by CCK8 assay", "format": "toxicity, cell-based"}, "[28]": {"test_system": "Infectious hematopoietic necrosis virus", "assay": "as §1, with “viral G gene expression” for “viral titer”, “in kidney of recipient” for “in donor”, “hrs by qPCR analysis” for “hrs”", "format": "functional, organism-based"}, "[29]": {"test_system": "Infectious hematopoietic necrosis virus", "assay": "Antiviral activity against IHNV infected in juvenile rainbow trout assessed as increase in Mx1 gene expression in spleen administered intraperitoneally measured after 2 days by RT-qPCR analysis", "format": "functional, organism-based", "details": "route ip, time 2.0 day"}, "[30]": {"test_system": "Infectious hematopoietic necrosis virus", "assay": "Antiviral activity against IHNV infected in juvenile rainbow trout assessed as decrease in hemorrhage in spleen administered intraperitoneally measured after 2 days by H and E staining based analysis", "format": "functional, organism-based", "details": "route ip, time 2.0 day"}}, "note": "Calls of active or inactive are those of the source. The calls are words filed in the database; no cut-off is given here.", "data": [{"smiles": "COc1ccc(C[C@H]2COC(=O)[C@@H]2Cc2ccc(OCCCCCCCCn3cncn3)c(OC)c2)cc1OC", "values": [{"measurement": "Activity", "setting": "[1]", "result": 67, "unit": "%"}, {"measurement": "Activity", "setting": "[2]", "result": "Active"}, {"measurement": "Activity", "setting": "[3]", "result": 20, "unit": "%"}, {"measurement": "inhibition", "setting": "[4]", "result": "Dose-dependent-effect"}, {"measurement": "Activity", "setting": "[5]", "result": 0.2, "unit": "um2"}, {"measurement": "Activity", "setting": "[6]", "result": "Active"}, {"measurement": "Activity", "setting": "[7]", "result": "Toxic"}, {"measurement": "Activity", "setting": "[8]", "result": 46, "unit": "%"}, {"measurement": "Activity", "setting": "[9]", "result": "Active"}, {"measurement": "inhibition at 25 µM", "setting": "[10]", "result": "> 90", "unit": "%"}, {"measurement": "Activity", "setting": "[11]", "result": 0.8, "unit": "um"}, {"measurement": "inhibition", "setting": "[12]", "result": "Active"}, {"measurement": "Activity", "setting": "[13]", "result": "Active"}, {"measurement": "Activity", "setting": "[14]", "result": "Active"}, {"measurement": "Activity", "setting": "[15]", "result": "Active"}, {"measurement": "Activity", "setting": "[16]", "result": "Active"}, {"measurement": "Activity", "setting": "[17]", "result": "Active"}, {"measurement": "Activity", "setting": "[18]", "result": "Active"}, {"measurement": "inhibition", "setting": "[19]", "result": "Active"}, {"measurement": "Activity", "setting": "[20]", "result": 100, "unit": "%"}, {"measurement": "Activity", "setting": "[21]", "result": "Active"}, {"measurement": "Survival", "setting": "[22]", "result": 44, "unit": "%"}, {"measurement": "Activity", "setting": "[23]", "result": "Active"}, {"measurement": "Activity", "setting": "[24]", "result": "Active"}, {"measurement": "Activity", "setting": "[25]", "result": "Active; The Cristae Formed Tubular Structures, With The Inter-Membrane Space Forming The Mitochondrial Outer Chamber And Connecting Cristae Inner Spaces"}, {"measurement": "inhibition", "setting": "[26]", "result": "Dose-dependent-effect"}, {"measurement": "Activity", "setting": "[27]", "result": "Non-toxic"}, {"measurement": "Activity", "setting": "[28]", "result": "Active"}, {"measurement": "Activity", "setting": "[29]", "result": "Active"}, {"measurement": "Activity", "setting": "[30]", "result": "Active"}]}]}
